{
  "source": "paper PMC6052858",
  "about": "(Die Pharmazie, 2009)",
  "key": {"[1]": {"conditions": "extensive presystemic metabolism; ref Kane et al. 2000; cited from earlier work"}, "[2]": {"experiment": "Transport of diltiazem mucosal to serosal, normal sac method, rat duodenum", "assay_type": "in vitro ADME", "conditions": "rifampicin pretreatment"}, "in vivo": {"experiment": "in vivo", "conditions": "male, Wistar, rat, po, 15 mg/kg"}, "[3]": {"experiment": "Metabolic stability of diltiazem in rat liver S9 fraction", "assay_type": "in vitro ADME"}, "[4]": {"conditions": "with GFJ; cited from earlier work"}, "[5]": {"conditions": "cited from earlier work"}, "P-gp": {"tested_on": "P-gp", "conditions": "chronic administration of GFJ; ref Varma 2005; cited from earlier work"}, "[6]": {"conditions": "multiple dose GFJ, listed as DTZ"}},
  "note": "Several values for one entry are separate records, joined by “and”; a condition that tells them apart may be missing. Identical values can stand only once. Like-named read-outs stand apart in the source and are kept apart here.",
  "data": [
    {"smiles": "COc1ccc([C@@H]2Sc3ccccc3N(CCN(C)C)C(=O)[C@@H]2OC(C)=O)cc1", "note": "[Diltiazem, diltiazem]", "values": [
      {"measurement": "oral bioavailability", "setting": "[1]", "result": "40–50%"},
      {"measurement": "T1/2", "setting": "diltiazem 15 mg/kg p.o with single dose GFJ", "result": 31.2, "unit": "min"},
      {"measurement": "AUC0–24 (AUC0–t), % inhibition (decrease) compared to control", "setting": "multiple dose GFJ", "result": 43.22, "unit": "%"},
      {"measurement": "Cmax, % inhibition (decrease) compared to control", "setting": "multiple dose GFJ", "result": 66.09, "unit": "%"},
      {"measurement": "T1/2, % change compared to control (footnote: % inhibition; text: increased)", "setting": "multiple dose GFJ", "result": 136.7, "unit": "%"},
      {"measurement": "Tmax, % change compared to control (footnote: % inhibition; text: increased)", "setting": "multiple dose GFJ", "result": 437.5, "unit": "%"},
      {"measurement": "AUC0–24 (AUC0–t), % inhibition (decrease) compared to control", "setting": "[6]", "result": 43.2, "unit": "%"},
      {"measurement": "AUC0–∞, % inhibition (decrease) compared to control", "setting": "[6]", "result": 35.1, "unit": "%"},
      {"measurement": "Cmax, % inhibition (decrease) compared to control", "setting": "[6]", "result": "66.0% and 66.1%"},
      {"measurement": "Tmax, % change compared to control (footnote: % inhibition; text: increased)", "setting": "[6]", "result": 437.5, "unit": "%"},
      {"measurement": "AUC0–24 (AUC0–t), % inhibition (decrease) compared to control", "setting": "single dose GFJ", "result": 1.26, "unit": "%"},
      {"measurement": "AUC0–∞, % inhibition (decrease) compared to control", "setting": "single dose GFJ", "result": 17.98, "unit": "%"},
      {"measurement": "Cmax, % inhibition (decrease) compared to control", "setting": "single dose GFJ", "result": 23.1, "unit": "%"},
      {"measurement": "T1/2, % change compared to control (footnote: % inhibition)", "setting": "single dose GFJ", "result": 6.12, "unit": "%"},
      {"measurement": "Tmax, % change compared to control (footnote: % inhibition)", "setting": "single dose GFJ", "result": 0, "unit": "%"},
      {"measurement": "Cmax, % inhibition (decrease) compared to control", "setting": "single dose GFJ, listed as DTZ", "result": 23.14, "unit": "%"},
      {"measurement": "T1/2, % change compared to control (footnote: % inhibition)", "setting": "single dose GFJ, listed as DTZ", "result": "no statistically significant change"},
      {"measurement": "Tmax, % change compared to control (footnote: % inhibition)", "setting": "single dose GFJ, listed as DTZ", "result": "no change"},
      {"measurement": "Increase of mean cumulative efflux of diltiazem vs control", "setting": "[2]", "result": 35.79, "unit": "%"},
      {"measurement": "AUC(0-inf)", "setting": "in vivo; in vivo", "result": 51.5, "unit": "ng·h/mL"},
      {"measurement": "Tmax", "setting": "in vivo; plasma", "result": 4.8, "unit": "min"},
      {"measurement": "AUC(0-t)", "setting": "in vivo; plasma, AUC0–24, diltiazem 15 mg/kg p.o with water (control)", "result": 43.6, "unit": "ng·h/mL"},
      {"measurement": "AUC(0-t)", "setting": "in vivo; plasma, AUC0–24, diltiazem 15 mg/kg p.o, multiple dose GFJ", "result": 24.8, "unit": "ng·h/mL"},
      {"measurement": "AUC(0-inf)", "setting": "in vivo; plasma, AUC0–∞, diltiazem 15 mg/kg p.o with water (control)", "result": 62.8, "unit": "ng·h/mL"},
      {"measurement": "AUC(0-inf)", "setting": "in vivo; plasma, AUC0–∞, diltiazem 15 mg/kg p.o, multiple dose GFJ", "result": 33.7, "unit": "ng·h/mL"},
      {"measurement": "Cmax", "setting": "in vivo; plasma, Cmax, diltiazem 15 mg/kg p.o with water (control), n = 6", "result": "121 ± 16.4", "unit": "ng/mL"},
      {"measurement": "half-life", "setting": "in vivo; plasma, T1/2, diltiazem 15 mg/kg p.o with water (control)", "result": 29.4, "unit": "min"},
      {"measurement": "% metabolism of diltiazem", "setting": "[3]; control rat liver S9, diltiazem alone 12.5 µM, 1 mg protein/ml, 37 °C, 0 min", "result": 0, "unit": "%"},
      {"measurement": "% metabolism of diltiazem", "setting": "[3]; control rat liver S9, diltiazem alone, 5 min", "result": 36.61, "unit": "%"},
      {"measurement": "% metabolism of diltiazem", "setting": "[3]; control rat liver S9, diltiazem alone, 10 min", "result": 49.01, "unit": "%"},
      {"measurement": "% metabolism of diltiazem", "setting": "[3]; control rat liver S9, diltiazem alone, 20 min", "result": 60.15, "unit": "%"},
      {"measurement": "% metabolism of diltiazem", "setting": "[3]; control rat liver S9, diltiazem alone, 30 min", "result": 69.56, "unit": "%"},
      {"measurement": "% metabolism of diltiazem", "setting": "[3]; control rat liver S9, diltiazem alone, 40 min", "result": 77.47, "unit": "%"},
      {"measurement": "% metabolism of diltiazem", "setting": "[3]; control rat liver S9, diltiazem alone, 60 min", "result": 88.91, "unit": "%"},
      {"measurement": "% metabolism of diltiazem", "setting": "[3]; control rat liver S9, diltiazem alone, 60 min, listed as DTZ", "result": 88.9, "unit": "%"},
      {"measurement": "% metabolism of diltiazem", "setting": "[3]; control rat liver S9, in presence of testosterone, 0 min", "result": 0, "unit": "%"},
      {"measurement": "% metabolism of diltiazem", "setting": "[3]; control rat liver S9, in presence of testosterone, 5 min", "result": 9.19, "unit": "%"},
      {"measurement": "% metabolism of diltiazem", "setting": "[3]; control rat liver S9, in presence of testosterone, 10 min", "result": 16.32, "unit": "%"},
      {"measurement": "% metabolism of diltiazem", "setting": "[3]; control rat liver S9, in presence of testosterone, 20 min", "result": 29.91, "unit": "%"},
      {"measurement": "% metabolism of diltiazem", "setting": "[3]; control rat liver S9, in presence of testosterone, 30 min", "result": 35.67, "unit": "%"},
      {"measurement": "% metabolism of diltiazem", "setting": "[3]; control rat liver S9, in presence of testosterone, 40 min", "result": 38.16, "unit": "%"},
      {"measurement": "% metabolism of diltiazem", "setting": "[3]; control rat liver S9, in presence of testosterone, 60 min", "result": 41.25, "unit": "%"},
      {"measurement": "% metabolism of diltiazem", "setting": "[3]; liver S9 from rats treated with GFJ orally for 7 days, 0 min", "result": 0, "unit": "%"},
      {"measurement": "% metabolism of diltiazem", "setting": "[3]; liver S9 from rats treated with GFJ orally for 7 days, 5 min", "result": 12.79, "unit": "%"},
      {"measurement": "% metabolism of diltiazem", "setting": "[3]; liver S9 from rats treated with GFJ orally for 7 days, 10 min", "result": 21.11, "unit": "%"},
      {"measurement": "% metabolism of diltiazem", "setting": "[3]; liver S9 from rats treated with GFJ orally for 7 days, 20 min", "result": 28.49, "unit": "%"},
      {"measurement": "% metabolism of diltiazem", "setting": "[3]; liver S9 from rats treated with GFJ orally for 7 days, 30 min", "result": 31.38, "unit": "%"},
      {"measurement": "% metabolism of diltiazem", "setting": "[3]; liver S9 from rats treated with GFJ orally for 7 days, 40 min", "result": 40.76, "unit": "%"},
      {"measurement": "% metabolism of diltiazem", "setting": "[3]; liver S9 from rats treated with GFJ orally for 7 days, 60 min", "result": 48.26, "unit": "%"},
      {"measurement": "% metabolism of diltiazem", "setting": "[3]; liver S9 from rats treated with GFJ orally for 7 days, 60 min, listed as DTZ", "result": 48.3, "unit": "%"}
    ]},
    {"smiles": "CCOC(=O)C1=C(COCCN)NC(C)=C(C(=O)OC)C1c1ccccc1Cl", "note": "(stereo not drawn) [amlodipine]", "values": [
      {"measurement": "increase of Tmax", "setting": "[4]", "result": 115, "unit": "%"}
    ]},
    {"smiles": "COC(=O)C1=C(C)NC(C)=C(C(=O)OC)C1c1ccccc1[N+](=O)[O-]", "note": "[nifedipine]", "values": [
      {"measurement": "reduction of area under the curve", "setting": "[5]; intraduodenal, GFJ administered concomitantly, ref Mohri et al. 2000", "result": 50, "unit": "%"},
      {"measurement": "increase of nifedipine levels", "setting": "[5]; rats, long-term administration of GFJ, intraduodenally, ref Mohri et al. (2000)", "result": "approximately 1.62 times"}
    ]},
    {"smiles": "CC(=O)O[C@H]1C(=O)[C@@]2(C)[C@H]([C@H](OC(=O)c3ccccc3)[C@]3(O)C[C@H](OC(=O)[C@H](O)[C@@H](NC(=O)c4ccccc4)c4ccccc4)C(C)=C1C3(C)C)[C@]1(OC(C)=O)CO[C@@H]1C[C@@H]2O", "note": "[paclitaxel]", "values": [
      {"measurement": "efflux ratio (ER)", "setting": "P-gp", "result": 20.8}
    ]}
  ]
}
